# Experimental data: patent US20120016009A1, “Optimized Methods For Delivery Of DSRNA Targeting The PCSK9 Gene” (priority 2008, published 2012)
# In the oligonucleotide strings, read from the 5' end, every base follows the letter of its sugar. An asterisk marks phosphorothioate; unmarked linkages are phosphodiester. Other units and linkages are bracketed, terminal groups are in braces. A string of capitals states the bases alone. e = 2'-O-(2-methoxyethyl) (MOE); d = 2'-deoxy (DNA); m = 2'-O-methyl; r = 2'-OH (RNA); {P} = phosphate; f = 2'-fluoro
# System: PCSK9 mRNA
# Test: In vitro screening of modified dsRNAs targeted to PCSK9 (Table 2b; cell type not given)
# Type: cell-based
# Conditions: 30 nM siRNA
# Experimental: For transfection with siRNA, HuH7, HepG2, or HeLa cells were seeded at a density of 2.0×10^4 cells/well in 96-well plates and transfected directly. Transfection of siRNA (30 nM for single dose screen) was carried out with lipofectamine 2000 (Invitrogen GmbH, Karlsruhe, Germany, cat. No. 11668-019) as described by the manufacturer.
# 24 hours after transfection HuH7 and HepG2 cells were lysed and PCSK9 mRNA levels were quantified with the Quantigene Explore Kit (Genosprectra, Dumbarton Circle Fremont, USA, cat. No. QG-000-02) according to the protocol. PCSK9 mRNA levels were normalized to GAP-DH mRNA. For each siRNA eight individual datapoints were collected. siRNA duplexes unrelated to PCSK9 gene were used as control. The activity of a given PCSK9 specific siRNA duplex was expressed as percent PCSK9 mRNA concentration in treated cells relative to PCSK9 mRNA concentration in cells treated with the control siRNA duplex.
# Tables 1b and 2b (and FIG. 6A) summarize the results and provide examples of in vitro screens in different cell lines at different doses. Silencing of PCSK9 transcript was expressed as percentage of remaining transcript at a given dose.
row,Substance,Remaining mRNA in % of controls at siRNA conc. of 30 nM [%]
1,"AD-12351: modified dsRNA, SEQ ID NO:1401/1402 (chain 1 fGmCfCmUfGmGfAmGfUmUfUmAfUmUfCmGfGmAfA; chain 2 {P}-mUfUmCfCmGfAmAfUmAfAmAfCmUfCmCfAmGfGmC*fC*mU)",11
2,"AD-12352: modified dsRNA, SEQ ID NO:1403/1404 (chain 1 fGmCfCmUfGmGfAmGfUmUfUmAfUmUfCmGfGmAfA; chain 2 rUrUrCrCrGmAmArUrAmAmArCrUrCrCrAmGmGmC*mC*mU)",11
3,"AD-12354: modified dsRNA, SEQ ID NO:1405/1406 (chain 1 fGmCfCmUfGmGfAmGfUmUfUmAfUmUfCmGfGmAfA; chain 2 rUrUrCrCrGrArArUrArArArCrUrCrCrArGrGrC*mC*mU)",11
4,"AD-12355: modified dsRNA, SEQ ID NO:1407/1408 (chain 1 fGmCfCmUfGmGfAmGfUmUfUmAfUmUfCmGfGmAfA; chain 2 rUrUrCrCrGrArAmUrArArArCrUrCmCrArGrGrCdT*dT)",9
5,"AD-12356: modified dsRNA, SEQ ID NO:1409/1410 (chain 1 fGmCfCmUfGmGfAmGfUmUfUmAfUmUfCmGfGmAfA; chain 2 mUrUmCrCrGrArAmUrArArArCrUmCmCrArGrGrCdT*dT)",25
6,"AD-12357: modified dsRNA, SEQ ID NO:1411/1412 (chain 1 GCCUGGAGUUUAUUCGGAA; chain 2 rUrUrCrCrGmAmArUrAmAmArCrUrCrCrAmGmGmC; chain 1: sugars from the 5' end rererererererererer, all phosphodiester, methylation of C and T or U not given here)",56
7,"AD-12358: modified dsRNA, SEQ ID NO:1413/1414 (chain 1 GCCUGGAGUUUAUUCGGAA; chain 2 {P}-mUfUmCfCmGfAmAfUmAfAmAfCmUfCmCfAmGfGmC; chain 1: sugars from the 5' end rererererererererer, all phosphodiester, methylation of C and T or U not given here)",29
8,"AD-12359: modified dsRNA, SEQ ID NO:1415/1416 (chain 1 GCCUGGAGUUUAUUCGGAA; chain 2 {P}-mUfUmCfCmGfAmAfUmAfAmAfCmUfCmCfAmGfGmC*fC*mU; chain 1: sugars from the 5' end rererererererererer, all phosphodiester, methylation of C and T or U not given here)",30
9,"AD-12360: modified dsRNA, SEQ ID NO:1417/1418 (chain 1 GCCUGGAGUUUAUUCGGAA; chain 2 rUrUrCrCrGrArArUrArArArCrUrCrCrArGrGrC*mC*mU; chain 1: sugars from the 5' end rererererererererer, all phosphodiester, methylation of C and T or U not given here)",15
10,"AD-12361: modified dsRNA, SEQ ID NO:1419/1420 (chain 1 GCCUGGAGUUUAUUCGGAA; chain 2 rUrUrCrCrGrArAmUrArArArCrUrCmCrArGrGrCdT*dT; chain 1: sugars from the 5' end rererererererererer, all phosphodiester, methylation of C and T or U not given here)",20
11,"AD-12362: modified dsRNA, SEQ ID NO:1421/1422 (chain 1 GCCUGGAGUUUAUUCGGAA; chain 2 mUrUmCrCrGrArAmUrArArArCrUmCmCrArGrGrCdT*dT; chain 1: sugars from the 5' end rererererererererer, all phosphodiester, methylation of C and T or U not given here)",51
12,"AD-12363: modified dsRNA, SEQ ID NO:1423/1424 (chain 1 GCCUGGAGUUUAUUCGGAA; chain 2 rUrUrCrCrGmAmArUrAmAmArCrUrCrCrAmGmGmC*mC*mU; chain 1: sugars from the 5' end rererererererererer, all phosphodiester, methylation of C and T or U not given here)",11
13,"AD-12364: modified dsRNA, SEQ ID NO:1425/1426 (chain 1 GCCUGGAGUUUAUUCGGAATT; chain 2 rUrUrCrCrGmAmArUrAmAmArCrUrCrCrAmGmGmCdT*dT; chain 1: sugars from the 5' end rerererererererererdd, linkages o19 s1 (s phosphorothioate, o phosphodiester), methylation of C and T or U not given here)",25
14,"AD-12365: modified dsRNA, SEQ ID NO:1427/1428 (chain 1 GCCUGGAGUUUAUUCGGAATT; chain 2 rUrUrCrCrGrArAmUrArArArCrUrCmCrArGrGrCdT*dT; chain 1: sugars from the 5' end rerererererererererdd, linkages o19 s1 (s phosphorothioate, o phosphodiester), methylation of C and T or U not given here)",18
15,"AD-12366: modified dsRNA, SEQ ID NO:1429/1430 (chain 1 GCCUGGAGUUUAUUCGGAATT; chain 2 rUrUrCrCrGrArArUrArArArCrUrCrCrArGrGrCdT*dT; chain 1: sugars from the 5' end rerererererererererdd, linkages o19 s1 (s phosphorothioate, o phosphodiester), methylation of C and T or U not given here)",23
16,"AD-12367: modified dsRNA, SEQ ID NO:1431/1432 (chain 1 GCCUGGAGUUUAUUCGGAATT; chain 2 rUrUrCrCrGmAmArUrAmAmArCrUrCrCrAmGmGmCdT*dT; chain 1: DNA at T, 2'-MOE at CU, RNA at AG, linkages o19 s1 (s phosphorothioate, o phosphodiester), methylation of C and T or U not given here)",42
17,"AD-12368: modified dsRNA, SEQ ID NO:1433/1434 (chain 1 GCCUGGAGUUUAUUCGGAATT; chain 2 rUrUrCrCrGrArAmUrArArArCrUrCmCrArGrGrCdT*dT; chain 1: DNA at T, 2'-MOE at CU, RNA at AG, linkages o19 s1 (s phosphorothioate, o phosphodiester), methylation of C and T or U not given here)",40
18,"AD-12369: modified dsRNA, SEQ ID NO:1435/1436 (chain 1 GCCUGGAGUUUAUUCGGAATT; chain 2 rUrUrCrCrGrArArUrArArArCrUrCrCrArGrGrCdT*dT; chain 1: DNA at T, 2'-MOE at CU, RNA at AG, linkages o19 s1 (s phosphorothioate, o phosphodiester), methylation of C and T or U not given here)",26
19,"AD-12370: modified dsRNA, SEQ ID NO:1437/1438 (chain 1 GCCUGGAGUUUAUUCGGAATT; chain 2 {P}-fUfUfCfCrGrArAfUrArArAfCfUfCfCrArGrGfCdT*dT; chain 1: DNA at T, 2'-MOE at CU, RNA at AG, linkages o19 s1 (s phosphorothioate, o phosphodiester), methylation of C not given here)",68
20,"AD-12371: modified dsRNA, SEQ ID NO:1439/1440 (chain 1 GCCUGGAGUUUAUUCGGAATT; chain 2 {P}-fUfUfCfCrGrArAfUrArArAfCfUfCfCrArGrGfC*fC*fU; chain 1: DNA at T, 2'-MOE at CU, RNA at AG, linkages o19 s1 (s phosphorothioate, o phosphodiester), methylation of C and T or U not given here)",60
21,"AD-12372: modified dsRNA, SEQ ID NO:1441/1442 (chain 1 GCCUGGAGUUUAUUCGGAATT; chain 2 {P}-mUfUmCfCmGfAmAfUmAfAmAfCmUfCmCfAmGfGmC*fC*mU; chain 1: DNA at T, 2'-MOE at CU, RNA at AG, linkages o19 s1 (s phosphorothioate, o phosphodiester), methylation of C and T or U not given here)",60
22,"AD-12373: modified dsRNA, SEQ ID NO:1443/1444 (chain 1 GCCUGGAGUUUAUUCGGAATT; chain 2 rUrUrCrCrGrArArUrArArArCrUrCrCrArGrGrCdT*dT; chain 1: DNA at T, 2'-MOE at CU, RNA at AG, linkages o19 s1 (s phosphorothioate, o phosphodiester), methylation of C and T or U not given here)",55
23,"AD-12374: modified dsRNA, SEQ ID NO:1445/1446 (chain 1 rGfCfCfUrGrGrArGfUfUfUrAfUfUfCrGrGrArAdT*dT; chain 2 fUfUfCfCrGrArAfUrArArAfCfUfCfCrArGrGfCdT*dT)",9
24,"AD-12375: modified dsRNA, SEQ ID NO:1447/1448 (chain 1 rGfCfCfUrGrGrArGfUfUfUrAfUfUfCrGrGrArAdT*dT; chain 2 rUrUrCrCrGrArArUrArArArCrUrCrCrArGrGrCdT*dT)",16
